From patent US10961238B2, “Modulators of hedgehog (Hh) signaling pathway” (E-THERAPEUTICS PLC, priority 2016, dated 2021)

These compounds were tested on C3H10T1/2 cells (assay: C3H assay: differentiation of C3H10T1/2 cells by mSHH, measurement of alkaline phosphatase). Conditions: Mus musculus, C3H 10T1/2; C3H10T1/2 cells stimulated with mSHH for 72 hours; alkaline phosphatase activity; read-out: IC50 Ranges.
Format: cell-based, mouse
`CC(C)N(CC(=O)N1CC(S(=O)(=O)N2CCC(c3c[nH]c4ncccc34)CC2)C1)C(C)C` [Compound 326, 2-[di(propan-2-yl)amino]-1-[3-[4-(1H-pyrrolo [2,3-b]pyridin-3-yl)piperidin-1-yl]sulfonylaze-tidin-1-yl]ethanone] gave an IC50 of 10 to 100 nM. `CC(C)(C)OC(=O)N1CC(S(=O)(=O)N2CCC(c3ccc(F)cc3)CC2)C1` [Compound 327, tert-butyl 3-[4-(4-fluorophenyl)piperidin-l-yl]sulfonylaze-tidine-1-carboxylate] gave an IC50 of 100 to 1000 nM. `CN(C)CC(=O)N1CC(S(=O)(=O)N2CCC(c3coc4cccnc34)CC2)C1` [Compound 329, 2-(dimethylamino)-1-[3-(4-furo[3,2-b]pyridin-3-ylpiperidin-1-yl)sulfonylaze-tidin-1-yl]ethanone] showed an IC50 of 1000 to 10000 nM. Compound `CC(C)N(CC(=O)N1CC(S(=O)(=O)N2CCC(c3coc4cccnc34)CC2)C1)C(C)C` [Compound 330, 2-[di(propan-2-yl)amino]-1-[3-(4-furo[3,2-b]pyridin-3-ylpiperidin-1-yl)sulfonylaze-tidin-1-yl]ethanone] has an IC50 of 10 to 100 nM. `N#Cc1ccc(C2CCN(S(=O)(=O)C3CN(C(=O)NC4(C(F)(F)F)CC4)C3)CC2)cc1` [Compound 331, 3-[4-(4-cyanophenyl)piperidin-1-yl]sulfonyl-N-[1 (trifluoromethyl)cyclopropyl] azetidine-1-carboxamide] was tested, and the IC50 was 10 to 100 nM. For `C[C@@H](NC(=O)N1CC(S(=O)(=O)N2CCC(c3c[nH]c4ncccc34)CC2)C1)C(F)(F)F` [Compound 332, 3-[4-(1H-pyrrolo [2,3-b]pyridin-3-yl)piperidin-1-yl]sulfonyl-N-[(2R)-1,1,1-trifluoropropan-2-yl]azetidine-1-carboxamide], the IC50 was 10 to 100 nM. `N#Cc1ccc(NC(=O)N2CC(S(=O)(=O)N3CCC(c4c[nH]c5ncccc45)CC3)C2)cc1` [Compound 335, N-(4-cyanophenyl)-3-[4-(1H-pyrrolo [2,3-b]pyridin-3-yl)piperidin-1-yl]sulfonylaze-tidine-1-carboxamide] showed an IC50 of 10 to 100 nM. With `CC(C)(C)OC(=O)NC1CC(S(=O)(=O)N2CCC(c3c[nH]c4ncccc34)CC2)C1` (centres unmarked) [Compound 336, tert-butyl N-[3-[4-(1H-pyrrolo[2,3-b]pyridin-3-yl)piperidin-1-yl]sulfonylcyclobutyl] carbamate] the IC50 was 10 to 100 nM. In the case of `O=S(=O)(C1CN(c2nc3ccccc3s2)C1)N1CCC(c2ccncc2)CC1` [Compound 337, 2-[3-(4-pyridin-4-ylpiperidin-1-yl)sulfonylaze-tidin-1-yl]-1,3-benzothiazole], the IC50 is reported as 100 to 1000 nM. `O=S(=O)(C1CN(c2nc3ccccc3o2)C1)N1CCC(c2c[nH]c3ncccc23)CC1` [Compound 338, 2-[3-[4-(1H-pyrrolo[2,3-b]pyridin-3-yl)piperidin-1-yl]sulfonylaze-tidin-1-yl]-1,3-benzoxazole] gave an IC50 of 10 to 100 nM. In the case of `CC(C)(C)OC(=O)N1CC(S(=O)(=O)N2CCC(c3c[nH]c4cnccc34)CC2)C1` [Compound 339, tert-butyl 3-[4-(1H-pyrrolo[2,3-c]pyridin-3-yl)piperidin-1-yl]sulfonylaze-tidine-1-carboxylate], the IC50 is reported as 1000 to 10000 nM. `CN(C(=O)N1CC(S(=O)(=O)N2CCC(c3ccc(F)cc3)CC2)C1)C1CC1` [Compound 340, N-cyclopropyl-3-[4-(4-fluorophenyl)piperidin-1-yl]sulfonyl-N-methylazetidine-1-carboxamide] showed an IC50 of 1000 to 10000 nM. Work on `O=C(NC1(C(F)(F)F)CC1)N1CC(S(=O)(=O)N2CCC(c3ccc(Cl)cc3)CC2)C1` [Compound 341, 3-[4-(4-chlorophenyl)piperidin-1-yl]sulfonyl-N-[1-(trifluoromethyl)cyclopropyl] azetidine-1-carboxamide] yielded an IC50 of 10 to 100 nM. `Cc1noc(C)c1CC(=O)N1CC(S(=O)(=O)N2CCC(c3ccc(F)cc3)CC2)C1` [Compound 342, 2-(3,5-dimethyl-1,2-oxazol-4-yl)-1-[3-[4-(4-fluorophenyl)piperidin-1-yl]sulfonylazetidin-1-yl]ethanone] was tested, and the IC50 was 10 to 100 nM. `CC(C)N(CC(=O)N1CC(S(=O)(=O)N2CCC(c3ccc(F)cc3)CC2)C1)C(C)C` [Compound 343, 2-[di(propan-2-yl)amino]-1-[3-[4-(4-fluorophenyl)piperidin-1-yl]sulfonylaze-tidin-l-yl]ethanone] gave an IC50 of 100 to 1000 nM. In the case of `O=C(NC1(C(F)(F)F)CC1)[C@H]1C[C@H](S(=O)(=O)N2CCC(c3coc4cccnc34)CC2)C1` [Compound 345, trans-3-(4-furo[3,2-b]pyridin-3-ylpiperidin-1-yl)sulfonyl-N-[1-(trifluoromethyl)cyclopropyl] cyclobutane-1-carboxamide], the IC50 is reported as 100 to 1000 nM. For `CC(C)(C)NC(=O)[C@H]1C[C@H](S(=O)(=O)N2CCC(c3coc4cccnc34)CC2)C1` [Compound 346, trans-N-tert-butyl-3-(4-furo[3,2-b]pyridin-3-ylpiperidin-1-yl) sulfonylcyclobutane-1-carboxamide], the IC50 was 1000 to 10000 nM. Compound `Cc1noc(C)c1CC(=O)N1CC(S(=O)(=O)N2CCC(c3ccc(C#N)cc3)CC2)C1` [Compound 349, 4-[1-[1-[2-(3,5-dimethyl-1,2-oxazol-4-yl)acetyl]azetidin-3-yl]sulfonylpiper-idin-4-yl]benzonitrile] has an IC50 of 10 to 100 nM. `CN(C(=O)N1CC(S(=O)(=O)N2CCC(c3ccc(C#N)cc3)CC2)C1)C1CC1` [Compound 350, 3-[4-(4-cyanophenyl)piperidin-1-yl]sulfonyl-N-cyclopropyl-N-methylazetidine-1-carboxamide] showed an IC50 of 1000 to 10000 nM. `N#Cc1ccc(C2CCN(S(=O)(=O)C3CN(C(=O)CC(O)(C(F)(F)F)C(F)(F)F)C3)CC2)cc1` [Compound 351] showed an IC50 of 100 to 1000 nM. `CC(C)(C)NC(=O)N1CC(S(=O)(=O)N2CCC(c3ccc(C#N)cc3)CC2)C1` [Compound 352, N-tert-butyl-3-[4-(4-cyanophenyl)piperidin-1-yl] sulfonylazetidine-1-carboxamide] gave an IC50 of 100 to 1000 nM. Compound `O=S(=O)(C1CN(Cc2ccccc2OC(F)F)C1)N1CCC(c2ccccc2)CC1` [Compound 353, 1-[1-[[2-(difluoromethoxy)phenyl]methyl]azetidin-3-yl]sulfonyl-4-phenylpiperidine] has an IC50 of 1000 to 10000 nM. Compound `Cc1ccc(C2CCN(S(=O)(=O)C3CN(C(=O)OC(C)(C)C)C3)CC2)c(C)c1` [Compound 354, tert-butyl 3-[4-(2,4-dimethylphenyl)piperidin-1-yl]sulfonylaze-tidine-1-carboxylate] has an IC50 of 1000 to 10000 nM. `O=C(NC1(C(F)(F)F)CC1)N1CC(S(=O)(=O)N2CCC(c3c[nH]c4cnccc34)CC2)C1` [Compound 355, 3-[4-(1H-pyrrolo[2,3-c]pyridin-3-yl)piperidin-1-yl]sulfonyl-N-[1-(trifluoromethyl)cyclopropyl] azetidine-1-carboxamide] was tested, and the IC50 was 1000 to 10000 nM. `O=S(=O)(C1CN(c2ccccn2)C1)N1CCC(c2c[nH]c3cccnc23)CC1` [Compound 356, 3-[1-(1-pyridin-2-ylazetidin-3-yl)sulfonylpiper-idin-4-yl]-1H-pyrrolo[3,2-b]pyridine] gave an IC50 of 1000 to 10000 nM. For `CC(C)(C)OC(=O)N[C@H]1C[C@H](S(=O)(=O)N2CCC(c3c[nH]c4ncccc34)CC2)C1` [Compound 357, trans-tert-butyl-N-[3-[[4-(1H-pyrrolo[2,3-b]pyridin-3-yl)-1-piperidyl]sulfonyl]cyclobutyl]carbamate], the IC50 was 10 to 100 nM.
